The test system of assay [1] is cornea. Briefly: Porcine Eye Corneal Stiffening Assay. To be noted: UVA 9 mm circle, 365 nm, 30 mW/cm^2, CW, 8.1 min, 15 J, 21% O2, 37.0° C., untreated cornea = 10.1. The protocol: Porcine whole globes in saline at 4° C. were warmed to room temperature. The eyes were either immediately placed into custom movable eye holders in a horizontal position with the cornea facing upward or were first de-epithelialized with a dulled scalpel blade before being placed in the holder. The eye holders were then positioned inside an enclosed chamber that allows for the control of atmosphere, temperature and humidity (typically a water bath at 37.0° C.). A solution of test compound held in place by a small rubber O-ring on the center of the cornea is then allowed to soak into the cornea surface of the test eye. After a set soaking time (typically 10 minutes) the O-ring is removed and any excess test solution washed away with saline. A specific pattern of UVA light at 365 nm is administered to the test eye cornea over a desired dosing period. A corneal flap of desired thickness (typically 200 μm is then excised from the eyes using a femtosecond laser (Zeimer, LDV1). The corneal flap is placed in saline at ambient temperature for 20 minutes and then mounted onto a biaxial extensiometer (CellScale Biotester5000, Waterloo, ON), using biorake attachments (5 tines spanning a width of 3.5 mm). The corneal flap is stretched at a constant rate of 4 μm/s in saline at 37° C. until sample failure. The maximum slope of the force vs distance curve is calculated and compared to that obtained from an untreated cornea.
The following notes provide further clarification regarding certain steps in the assay: • (1) A solution of the test compound (typically 0.22% w/v in saline) is held in place by a small rubber O-ring on the center of the cornea is then allowed to soak into the cornea surface of the test eye. After a set soaking time of 5-30 minutes (typically 10 minutes) the O-ring is removed and any excess test solution washed away with saline. • (2) A corneal flap of desired thickness and diameter (typically 200 μm thick by 8 mm diameter) is then excised from the eyes using a femtosecond laser (Zeimer, LDV1). The corneal flap is either placed in saline at ambient temperature for 20 minutes and then mounted in saline onto a biaxial extensiometer (CellScale Biotester5000, Waterloo, ON) or mounted directly onto the tester in 5% Dextran T500/saline. • (3) Biorake attachments (5 tines spanning a width of 3.5 mm) are used to hold the flap as it is stretched at 37° C. and a constant rate of 4 μm/s in both X (5 N load cell) and Y (10 N load cell) directions simultaneously. • (4) The maximum slope of the force vs distance curve corresponds to the stiffening value. It is compared to that obtained from an untreated cornea.

The test system of assay [2] is cornea. Briefly: Porcine Eye Corneal Flattening Assay. To be noted: overall change in keratometry (Km) of central 3 mm zone; UVA 4 mm circle, 365 nm, 30 mW/cm^2, CW, 8.1 min, 15 J total dose, normal (21% O2) atmosphere, 37.0° C. The procedure:
Porcine whole globes in saline at 4° C. were warmed to room temperature. The corneas were then de-epithelialized with a dulled scalpel blade and the eyes placed into custom movable eye holders in a horizontal position with the cornea facing upward. The eye holders were then positioned inside an enclosed chamber that allows for the control of atmosphere, temperature and humidity (typically a water bath at 37.0° C.). IOP is maintained at a constant pressure by the insertion of a blood bank buffered saline line from an IV bag at a standard height inserted into each eye via a syringe needle. 5% Dextran T500 in blood bank buffered saline is dropped onto the surface of the cornea of each eye every 90 sec for 2 hours to allow the eyes to stabilize. […] The test eye is then orientated in a vertical position and the pre-treatment surface keratometry of the cornea measured using a Pentacam® HR device fine cornea 100 scan. […] After a further 1.5 hours during which the 5% dextran drops are resumed the eye is orientated back to the vertical position and the post-treatment surface keratometry of the cornea measured using a Pentacam® HR device fine cornea 100 scan as before. The difference map between the pre and post treatment corneal images is obtained and the overall change in keratometry (Km) of the central 3 mm zone recorded as a change in diopters. […]

Where [3] appears, read: eyes were not de-epithelialized prior to treatment.
The mark [4] stands for this setting: maximum slope of force vs distance curve of corneal flap.

Marks after values point to notes of the source that are not given here.

From patent US12344598B2, “Bis(diazirine) derivatives as photo-crosslinker for treating corneal ectatic disorders” (Avedro, Inc., priority 2019, dated 2025) come the findings set out here.

With `CC1(CCNCCC(=O)N[C@@H](CC(=O)O)C(=O)OCCC2(C)N=N2)N=N1` [Example 6], the Max slope with cornea [1] (setting [3]) is listed as 10.88^#.
`CC1(CCNCC(=O)NCCC2(C)N=N2)N=N1` [Example 1] showed a Max slope with cornea [1] (setting [4]) of 11.28. Further, in the assay on cornea [2], the “Refractive Change (D)” value was −0.32 D.
For `CC1(CCNCCC(=O)N[C@@H](CCCCNC(=N)N)C(=O)NCCC2(C)N=N2)N=N1` [Example 10], the Max slope with cornea [1] (setting [3]) is reported as 10.14^#. The “Refractive Change (D)” value in the assay with cornea [2] was −0.64 D.
Regarding `CC1(CCN(CCC2(C)N=N2)CC(=O)O)N=N1` [Example 13], the Max slope in the assay with cornea [1] (setting [4]) was determined as 12.38.
In turn, `CC1(CCNCC(=O)N[C@@H](CC(=O)O)C(=O)NCCC2(C)N=N2)N=N1` [Example 17] showed a Max slope in the assay with cornea [1] (setting [4]) of 10.13.
As to `CC1(CCC(=O)N(CCC2(C)N=N2)CC(=O)O)N=N1` [Example 14], the Max slope in the assay on cornea [1] (setting [3]) came to 10.5; in the assay with cornea [1] (setting [4]), 10.66.
`CC1(CCC(=O)N(CCC2(C)N=N2)[C@@H]2CCNC2)N=N1` [Example 23]: the Max slope in the assay with cornea [1] (setting [3]) is 10.68^#.
